Results from US20210238139A1, “MODULATORS OF TRYPTOPHAN CATABOLISM” (E-Therapeutics PLC, priority 2018, published 2021).
Where two headings read alike, the source gives them in different places.

Tested on: SK-OV-3 cells
Test: Effect of compounds on tryptophan catabolism in SK-OV-3 cell line (inhibition of kynurenine production, LC-MS/MS)
Assay type: cell-based
Conditions: SK-OV-3 cell line, 24 h incubation, kynurenine in supernatant by LC-MS/MS, read-out: IC50 Ranges (ic50 values for inhibition of Kynurenine production)
Description: SK-OV-3 cells are seeded in 96-well plates in McCoy's 5A medium supplemented with 10% FBS and incubated overnight at 37° C., 5% CO2, 95% humidity. The […] growth medium is replaced with DMEM F-12 medium supplemented with 6 mg/mL L-tryptophan. Compounds are added to the wells and incubated for 24 h at 37° C., 5% CO2, 95% humidity. Compounds are tested at 8 consecutive 3-fold dilutions starting from 30 μM in duplicate. At the end of incubation, concentration of kynurenine in cell supernatants is […] determined by LC-MS/MS. In parallel, cell viability is assessed by measurement of ATP using CellTiter Glo assay (Promega), according to manufacturer's protocol. Inhibition of Kyn production is calculated using the following formula: […] IC50 ranges for compounds of the invention are presented in Table 2, whereby the IC50 ranges are as follows: • A: […]

Row | IC50 (Homo sapiens, SK-OV-3, 24 h) | IC50 | SMILES
1 | < 0.1 µM | – | CC(c1cccc(C#N)c1)N(C(=O)Nc1ccc(Cl)cc1)C1CCCC1 (racemic) [Compound 173, 3-(4-chlorophenyl)-1-[1-(3-cyanophenyl)ethyl]-1-cyclopentyl-urea]
2 | 0.1 to 0.5 µM | – | CC(c1ccccn1)N(C(=O)Nc1ccc(Cl)cc1)C1CCCC1 (racemic) [Compound 174, 3-(4-chlorophenyl)-1-cyclopentyl-1-[1-(2-pyridyl)ethyl]urea]
3 | 0.1 to 0.5 µM | – | CC(c1cccc(C#N)c1)N(C(=O)Nc1ccc(C#N)cc1)C1CCC1 (racemic) [Compound 184, 3-(4-cyanophenyl)-1-[1-(3-cyanophenyl)ethyl]-1-cyclobutyl-urea]
4 | 0.1 to 0.5 µM | – | CC(c1cccc(C#N)c1)N(C(=O)Nc1ccccc1)C1CCCC1 (racemic) [Compound 186, 1-[1-(3-cyanophenyl)ethyl]-1-cyclopentyl-3-phenyl-urea]
5 | 0.1 to 0.5 µM | – | CC(c1cccc(C#N)c1)N(C(=O)Nc1ccc(F)cc1)C1CCCC1 (racemic) [Compound 187, 1-[1-(3-cyanophenyl)ethyl]-1-cyclopentyl-3-(4-fluorophenyl)urea]
6 | 0.1 to 0.5 µM | – | CC(c1cccc(C#N)c1)N(C(=O)Nc1ccc(C#N)cc1)C1CCCC1 (racemic) [Compound 188, 3-(4-cyanophenyl)-1-[1-(3-cyanophenyl)ethyl]-1-cyclopentyl-urea]
7 | 0.1 to 0.5 µM | – | CC(c1cccc(C#N)c1)N(C(=O)Nc1ccc(F)cc1)C1CCC1 (racemic) [Compound 189, 1-[1-(3-cyanophenyl)ethyl]-1-cyclobutyl-3-(4-fluorophenyl)urea]
8 | 0.1 to 0.5 µM | – | Cc1ccc(C(C)N(C(=O)Nc2ccc(C#N)cc2)C2CCCC2)o1 (racemic) [Compound 190, 3-(4-cyanophenyl)-1-cyclopentyl-1-[1-(5-methyl-2-furyl)ethyl]urea]
9 | 0.5 to 1 µM | – | Cc1ccc(C(C)N(C(=O)Nc2ccc(F)cc2)C2CCCC2)o1 (racemic) [Compound 191, 1-cyclopentyl-3-(4-fluorophenyl)-1-[1-(5-methyl-2-furyl)ethyl]urea]
10 | < 0.1 µM | – | CC(c1cccc(C#N)c1)N(C(=O)Nc1ccc(Cl)cc1)C1CCC1 (racemic) [Compound 192, 3-(4-chlorophenyl)-1-[1-(3-cyanophenyl)ethyl]-1-cyclobutyl-urea]
11 | 0.1 to 0.5 µM | – | CCc1c(C)sc2c1CCN(C(=O)Nc1cc(C)cc(C)c1)C2c1ccccc1 (racemic) [Compound 194, N-(3,5-dimethylphenyl)-3-ethyl-2-methyl-7-phenyl-5,7-dihydro-4H-thieno[2,3-c]pyridine-6-carboxamide]
12 | 1 to 5 µM | – | CC(NC(=O)Nc1ccccc1)c1ccc(F)cc1 (racemic) [Compound 197, 1-[1-(4-fluorophenyl)ethyl]-3-phenyl-urea]
13 | 0.5 to 1 µM | – | CC(NC(=O)Nc1ccc(Cl)cc1)c1ccc(Cl)s1 (racemic) [Compound 199, 1-(4-chlorophenyl)-3-[1-(5-chloro-2-thienyl)ethyl]urea]
14 | 1 to 5 µM | – | O=C(NCCc1ccccc1)N(Cc1cccs1)C1CCCC1 [Compound 1, 1-cyclopentyl-3-(2-phenylethyl)-1-(2-thienylmethyl)urea]
15 | 1 to 5 µM | – | O=C(Nc1ccccc1Cl)N(Cc1cccs1)C1CCCC1 [Compound 2, 3-(2-chlorophenyl)-1-cyclopentyl-1-(2-thienylmethyl)urea]
16 | 0.5 to 1 µM | – | O=C(Nc1ccc(F)c(F)c1)N(Cc1cccs1)C1CCCC1 [Compound 4, 1-cyclopentyl-3-(3,4-difluorophenyl)-1-(2-thienylmethyl)urea]
17 | 1 to 5 µM | – | Cc1ccc(NC(=O)N(Cc2cccs2)C2CCCC2)c(C)c1 [Compound 5, 1-cyclopentyl-3-(2,4-dimethylphenyl)-1-(2-thienylmethyl)urea]
18 | 1 to 5 µM | – | N#CCc1ccc(NC(=O)N(Cc2cccs2)C2CCCC2)cc1 [Compound 6, 3-[4-(cyanomethyl)phenyl]-1-cyclopentyl-1-(2-thienylmethyl)urea]
19 | 1 to 5 µM | – | O=C(Nc1ccc2c(c1)OCO2)N(Cc1cccs1)C1CCCC1 [Compound 7, 3-(1,3-benzodioxol-5-yl)-1-cyclopentyl-1-(2-thienylmethyl)urea]
20 | > 5 µM | – | O=C(NCc1ccc(F)cc1)N(Cc1cccs1)C1CCCC1 [Compound 8, 1-cyclopentyl-3-[(4-fluorophenyl)methyl]-1-(2-thienylmethyl)urea]
21 | 1 to 5 µM | – | O=C(Nc1ccc2c(c1)CCC2)N(Cc1cccs1)C1CCCC1 [Compound 9, 1-cyclopentyl-3-indan-5-yl-1-(2-thienylmethyl)urea]
22 | 1 to 5 µM | – | O=C(Nc1cc(Cl)nc(Cl)c1)N(Cc1cccs1)C1CCCC1 [Compound 10, 1-cyclopentyl-3-(2,6-dichloro-4-pyridyl)-1-(2-thienylmethyl)urea]
23 | 1 to 5 µM | – | O=C(Nc1ccncc1)N(Cc1cccs1)C1CCCC1 [Compound 11, 1-cyclopentyl-3-(4-pyridyl)-1-(2-thienylmethyl)urea]
24 | 1 to 5 µM | – | O=C(NC1CCCCC1)N(Cc1cccs1)C1CCCC1 [Compound 12, 3-cyclohexyl-1-cyclopentyl-1-(2-thienylmethyl) urea]

Row | IC50 (Homo sapiens, SK-OV-3, 24 h) | IC50 | SMILES
25 | 1 to 5 µM | – | O=C(Nc1ccc(C(F)(F)F)cc1)N(Cc1cccs1)C1CCCC1 [Compound 13, 1-cyclopentyl-1-(2-thienylmethyl)-3-[4-(trifluoromethyl)phenyl]urea]
26 | > 5 µM | – | COc1ccc(NC(=O)N(Cc2cccs2)C2CCCC2)cc1 [Compound 14, 1-cyclopentyl-3-(4-methoxyphenyl)-1-(2-thienylmethyl)urea]
27 | 1 to 5 µM | – | C=CCNC(=O)N(Cc1cccs1)C1CCCC1 [Compound 15, 3-allyl-1-cyclopentyl-1-(2-thienylmethyl)urea]
28 | 0.1 to 0.5 µM | – | C#Cc1ccc(NC(=O)N(Cc2ccc(C)o2)C2CCCC2)nc1 [Compound 16, 1-cyclopentyl-3-(5-ethynyl-2-pyridyl)-1-[(5-methyl-2-furyl)methyl]urea]
29 | 0.1 to 0.5 µM | – | C#Cc1cnc(NC(=O)N(Cc2ccc(C)o2)C2CCCC2)nc1 [Compound 17, 1-cyclopentyl-3-(5-ethynylpyrimidin-2-yl)-1-[(5-methyl-2-furyl)methyl]urea]
30 | 1 to 5 µM | – | COc1ccc(NC(=O)N(Cc2cccs2)C2CCCC2)c(OC)c1 [Compound 18, 1-cyclopentyl-3-(2,4-dimethoxyphenyl)-1-(2-thienylmethyl)urea]
31 | – | 0.5 to 1 µM | O=C(Nc1ccccc1)N(Cc1cccs1)C1CCCC1 [Compound 19, 1-cyclopentyl-3-phenyl-1-(2-thienylmethyl)urea]
32 | > 5 µM | – | O=C(NCCc1ccccc1)N(Cc1ccccn1)C1CCCCC1 [Compound 20, 1-cyclohexyl-3-(2-phenylethyl)-1-(2-pyridylmethyl)urea]
33 | > 5 µM | – | CC(=O)c1ccc(NC(=O)N(Cc2cccs2)C2CCCC2)cc1 [Compound 22, 3-(4-acetylphenyl)-1-cyclopentyl-1-(2-thienylmethyl)urea]
34 | > 5 µM | – | CN(C(=O)N(Cc1cccs1)C1CCCC1)c1ccccc1 [Compound 23, 1-cyclopentyl-3-methyl-3-phenyl-1-(2-thienylmethyl)urea]
35 | > 5 µM | – | Cc1ccc(CN(C(=O)Nc2ccccc2)C2CCCC2)s1 [Compound 24, 1-cyclopentyl-1-[(5-methyl-2-thienyl)methyl]-3-phenyl-urea]
36 | 0.1 to 0.5 µM | – | CCc1ccc(NC(=O)N(Cc2ccc(C)s2)C2CCCC2)cc1 [Compound 25, 1-cyclopentyl-3-(4-ethylphenyl)-1-[(5-methyl-2-thienyl)methyl]urea]
37 | 0.1 to 0.5 µM | – | Cc1ccc(CN(C(=O)Nc2ccc(F)c(F)c2)C2CCCC2)s1 [Compound 27, 1-cyclopentyl-3-(3,4-difluorophenyl)-1-[(5-methyl-2-thienyl)methyl]urea]
38 | 0.5 to 1 µM | – | O=C(Nc1ccccc1)N(Cc1ccco1)C1CCCC1 [Compound 28, 1-cyclopentyl-1-(2-furylmethyl)-3-phenyl-urea]
39 | > 5 µM | – | O=C(NCCc1ccccc1)N(Cc1ccco1)C1CCCC1 [Compound 29, 1-cyclopentyl-1-(2-furylmethyl)-3-(2-phenylethyl)urea]
40 | 0.1 to 0.5 µM | – | O=C(Nc1ccc(F)c(F)c1)N(Cc1ccco1)C1CCCC1 [Compound 30, 1-cyclopentyl-3-(3,4-difluorophenyl)-1-(2-furylmethyl)urea]
41 | 0.1 to 0.5 µM | – | Cc1ccc(CN(C(=O)Nc2ccc(F)c(F)c2)C2CCCC2)o1 [Compound 31, 1-cyclopentyl-3-(3,4-difluorophenyl)-1-[(5-methyl-2-furyl)methyl]urea]
42 | > 5 µM | – | O=C(Nc1ccccc1)N(Cc1ccccn1)C1CCCCC1 [Compound 32, 1-cyclohexyl-3-phenyl-1-(2-pyridylmethyl)urea]
43 | > 5 µM | – | O=C(Nc1ccc(F)c(F)c1)N(Cc1ccccn1)C1CCCCC1 [Compound 33, 1-cyclohexyl-3-(3,4-difluorophenyl)-1-(2-pyridylmethyl)urea]
44 | 0.1 to 0.5 µM | – | O=C(Nc1ccc(F)cc1)N(Cc1cccs1)C1CCCC1 [Compound 34, 1-cyclopentyl-3-(4-fluorophenyl)-1-(2-thienylmethyl)urea]
45 | 1 to 5 µM | – | O=C(Nc1ccccc1)N(Cc1nccs1)C1CCCC1 [Compound 35, 1-cyclopentyl-3-phenyl-1-(thiazol-2-ylmethyl)urea]
46 | 1 to 5 µM | – | CCc1ccc(NC(=O)N(Cc2nccs2)C2CCCC2)cc1 [Compound 36, 1-cyclopentyl-3-(4-ethylphenyl)-1-(thiazol-2-ylmethyl)urea]
47 | 1 to 5 µM | – | O=C(Nc1ccc(F)c(F)c1)N(Cc1nccs1)C1CCCC1 [Compound 37, 1-cyclopentyl-3-(3,4-difluorophenyl)-1-(thiazol-2-ylmethyl)urea]
